# In paper PMC6681416, “Novel Derivatives of Deoxycholic Acid Bearing Linear Aliphatic Diamine and Aminoalcohol Moieties and their Cyclic Analogs at the C3 Position: Synthesis and Evaluation of Their In Vitro Antitumor Potential” (Molecules, 2019):
# Columns and labels:
# [1] = system: caspase-3/7 in HuTu-80 cells; test: Caspase-3/-7 activity (Caspase-Glo 3/7); format: cell-based, human; conditions: 8 µM, 18 h and 24 h time points
# Description: In the next step of the study our attention was focused on understanding the ability of compound 9 to activate caspases—a family of cysteine proteases, being critical mediators of apoptosis. In order to perform this, we evaluated the effect of compound 9 on activity of key executioner caspases-3 and -7 responsible for proteolytic cleavage of many proteins in the culminating step of cell death.
# The caspase-3/-7 activity in HuTu-80 cells was assessed by using Caspase-Glo® 3/7 Assay kit (Promega, Madison, WI, USA) according to the manufacturer’s instructions. Briefly, the cells were seeded in white-walled 96-well plates at a density of 10^4 cells/well for 24. After incubation, cells were treated with compound 9 at 8 µM for 6, 18 or 24 h and then 100 µL of Caspase-Glo® 3/7 reagent was added to each well. The plate was carefully shaken for 30 sec on a plate mixer and afterwards incubated for 30 min at room temperature in the dark. The luminescence was detected using CLARIOstar plate reader (BMG Labtech, Ortenberg, Germany).
# [2] = system: panel of cultured cell lines (HuTu-80, HepG2, KB-3-1, A549, RAW264.7, hFF3); test: MTT cytotoxicity, range over the panel of tested cell lines; format: cell-based; conditions: 24 h, summary of Table 1 (for 2–10 partly from ref [21])
# From the text: (§1) According to our previous data and data published by other research groups, chemical transformations of bile acids can greatly improve their antitumor potential. Thus, as the first step of evaluation of the biological activities of our novel DCA derivatives we assessed their effects on tumor cell viability. The cytotoxicity of the compounds was investigated with respect to a panel of cultured cell lines, including human duodenal HuTu-80, hepatocellular HepG2, cervical KB-3-1 and lung A549 carcinomas as well as murine macrophage RAW264.7 and non-transformed human fibroblasts hFF3 by MTT assay.
# Cells were seeded in triplicate in 96-well plates at a density of 5 × 10^3 (HuTu-80, HepG2, KB-3-1, hFF3), 10^4 (A549) or 5 × 10^4 (RAW264.7) cells per well. Cells were incubated under standard conditions for 24 h and then they were treated with varying doses of investigated derivatives for subsequent 24 h. Then 10 µL of MTT solution (5 mg/mL) were added to each wells and cells were incubated for an additional 2 h under standard conditions. The crystals of formazan forming within live cells were solubilized with DMSO and the absorbance was measured in a Multiscan RC plate reader (Thermo LabSystems, Helsinki, Finland) at a test and reference wavelengths of 570 nm and 620 nm, respectively. […]
# RAW264.7 macrophages = test: MTT cytotoxicity assay, RAW264.7; format: cell-based, murine
# From the text: as §1
# (§2) Human duodenal carcinoma HuTu-80 cells, human hepatocellular carcinoma HepG2 cells, human cervical carcinoma KB-3-1 cells, human lung carcinoma A549 cells were obtained from the Russian Cell Culture Collection (Institute of Cytology, RAS, St. Petersburg, Russia). Non-transformed human fibroblasts hFF3 were kindly provided by Dr. Olga Koval (Institute of Chemical Biology and Fundamental Medicine, SB RAS, Novosibirsk, Russia). RAW264.7 macrophages were kindly provided by Prof. Dr. Dmitry Kuprash (Engelhardt Institute of Molecular Biology, RAS, Moscow, Russia). The cells were cultured in DMEM (Sigma-Aldrich Inc., St. Louis, MO, USA) supplemented with 10% (v/v) heat-inactivated fetal bovine serum (FBS) (BioloT, St. Petersburg, Russia), 100 U/mL penicillin (ICN Biomedicals Inc., Costa Mesa, CA, USA), 100 µg/mL streptomycin and 0.25 µg/mL amphotericin; additionally, in the case of RAW264.7 cells, concentration of glucose in the medium was increased up to 4.5 mg/mL. The cells were incubated at 37 °C in 5% CO2 and 95% air (hereafter referred to as standard conditions). DCA derivatives were dissolved in DMSO to yield stock solutions of 10 mmol/L and stored at −20 °C prior to use.
# (§3) Cells were seeded in triplicate in 96-well plates at a density of 5 × 10^3 (HuTu-80, HepG2, KB-3-1, hFF3), 10^4 (A549) or 5 × 10^4 (RAW264.7) cells per well. Cells were incubated under standard conditions for 24 h and then they were treated with varying doses of investigated derivatives for subsequent 24 h. Then 10 µL of MTT solution (5 mg/mL) were added to each wells and cells were incubated for an additional 2 h under standard conditions. The crystals of formazan forming within live cells were solubilized with DMSO and the absorbance was measured in a Multiscan RC plate reader (Thermo LabSystems, Helsinki, Finland) at a test and reference wavelengths of 570 nm and 620 nm, respectively. […] To perform SAR analysis, hierarchical clustering of compounds based on their IC50 values was fulfilled with Euclidean distance by using the Morpheus tool (https://software.broadinstitute.org/morpheus/), a platform designed for visualization and analysis of data in a matrix format. Heatmap, containing compounds’ SI values, were constructed by using the Excel 2010 software (Microsoft, Redmond, WA, USA). In order to reveal whether ROS participate in the induction of cell death by compound 9, HuTu-80 cells cultured in 96-well plate were pretreated by NAC at 2 mM for 1 h. Thereafter, the medium was replaced by fresh medium with compound 9 at 8 µM and the cells were incubated with subsequent 24 h under standard conditions. After this time period, the curves of cytotoxicity of compound 9 in the presence or absence of NAC were compared.
# HepG2 cells = test: MTT cytotoxicity assay, HepG2; format: cell-based, human
# From the text: as §1, §2, §3
# HuTu-80 cells = test: Annexin V FITC/PI apoptosis detection; format: cell-based, human; conditions: 8 µM; for late apoptotic cells (Annexin V FITC+/PI+): control 1.5%; for early apoptotic cells (Annexin V FITC+/PI-): control 2.9%
# Description: In the first step of the mechanistic study, the effect of compound 9 on phosphatidylserine (PS) externalization, a marker of the early phase of apoptosis, was analyzed by double staining of compound 9-treated HuTu-80 cells by annexin V FITC and propidium iodide (PI). Live cells are characterized by lipid membrane asymmetry—PS is mainly present in the inner leaflet of the plasma membrane, whereas phosphatidylcholine and sphingomielin are restricted to the outer leaflet. During apoptosis the activity of enzymes involved in membrane lipid scrambling […] and PS is exposed on cell surface. Annexin V is a protein that has a high affinity for PS and its conjugates with fluorophores can be used to estimate the level of PS externalization in vitro. Usage of PI gives in turn an opportunity to identify late apoptotic and necrotic cells displaying increased membrane permeability.
# HuTu-80 cells were seeded in 6-well plates at a density of 5 × 10^5 cells per well and incubated for 24 h under standard conditions. Then the medium was replaced with fresh medium containing compound 9 at 8 µM. In order to determine induction of apoptosis, cells were harvested at 6, 18 and 24 h post treatment. Cells were detached with trypsin, washed with cold PBS and then resuspended gently in binding buffer at concentration of 10^6 cells/mL. Thereafter, cells were stained with fluorescein isothiocyanate (FITC)-conjugated Annexin V and PI (Annexin V-FITC Apoptosis Detection Kit, Millipore, Bedford, MA, USA) for 15 min in the dark and subsequently analyzed using NovoCyte Flow Cytometer (ACEA Biosciences Inc., San Diego, CA, USA). For each sample, 10.000 events were acquired.
structure (smiles),measurement,setting,value
"COC(=O)CC[C@@H](C)[C@H]1CC[C@H]2[C@@H]3CC[C@@H]4CC(O)(CNCCCO)CC[C@]4(C)[C@H]3CC(=O)[C@]12C (stereo partly drawn) [Compound 9, Methyl 3-hydroxy-3-((3-hydroxypropylamino)methyl)-12-oxo-5β-cholan-24-oate]",caspase-3/7 activity,[1],significantly increased
same,IC50,[2],4 to 33.3 µM
same,IC50,"RAW264.7 macrophages; Mus musculus, RAW264.7, MTT, 24 h, read-out: IC50 RAW264.7 (macrophage)",19.3 ± 3.7 µM
same,Selectivity index RAW264,RAW264.7 macrophages; ratio IC50 hFF3 / IC50 RAW264.7,1.7
same,IC50,"HepG2 cells; Homo sapiens, HepG2, MTT, 24 h, read-out: IC50 HepG2 (liver)",7.3 ± 0.6 µM
same,Selectivity index HepG-2,HepG2 cells; ratio IC50 hFF3 / IC50 HepG2,4.5
same,late apoptotic cells (Annexin V FITC+/PI+),HuTu-80 cells; 18 h,4.9%
same,early apoptotic cells (Annexin V FITC+/PI-),HuTu-80 cells; 18 h,23.5%
same,late apoptotic cells (Annexin V FITC+/PI+),HuTu-80 cells; 24 h,10.6%
same,early apoptotic cells (Annexin V FITC+/PI-),HuTu-80 cells; 24 h,36.1%
same,necrotic cells (Annexin V FITC-/PI+),"HuTu-80 cells; all time points (6, 18, 24 h)",≤ 1.1%
